Experimental data reported in ChEMBL document CHEMBL3785074, “Molecular modeling and snake venom phospholipase A2 inhibition by phenolic compounds: Structure-activity relationship” (Eur J Med Chem, 2016).
Active and inactive are the calls of the source. The rule behind the calls is not given here.

Columns and labels:
[1] = Lipophilicity, log P of compound; format: physicochemical; details: octanol/water; read-out: logP
[2] = Protective activity against Daboia russellii venom-induced mortality by measuring venom LD50 in Swiss albino mouse at 6 mmol, iv preincubated with venom for 1 hr followed by administration to mouse measured after 24 hrs (reference value: 2.28 ug); format: functional, Daboia russelii
[3] = Protective activity against Daboia russellii venom-induced mortality in Swiss albino mouse at 6 mmol, iv preincubated with venom for 1 hr followed by administration to mouse measured after 24 hrs relative to untreated control; format: functional, Daboia russelii
[4] = Protective activity against Naja kaouthia venom-induced mortality in Swiss albino mouse at 6 mmol, iv by measuring venom LD50 preincubated with venom for 1 hr followed by administration to mouse measured after 24 hrs (reference value: 2.82 ug); format: functional
[5] = Protective activity against Naja kaouthia venom-induced mortality in Swiss albino mouse at 6 mmol, iv preincubated with venom for 1 hr followed by administration to mouse measured after 24 hrs relative to untreated control; format: functional
[6] = (§1) Protective activity against Daboia russellii venom-induced hemorrhage in intradermally dosed Swiss albino mouse at 6 mmol assessed as hemorhagic lesion by measuring minimal […] dose preincubated with venom for 1 hr followed by administration to mouse measured after 24 hrs (reference value: 5 ug); format: functional, Daboia russelii
[7] = Protective activity against Daboia russellii venom-induced hemorrhage in intradermally dosed Swiss albino mouse at 6 mmol assessed as hemorhagic lesion preincubated with venom for 1 hr followed by administration to mouse measured after 24 hrs relative to untreated control; format: functional, Daboia russelii
[8] = Protective activity against Daboia russellii venom-induced mortality in Swiss albino mouse at 6 mmol, iv by measuring venom LD50 administered immediately after venom injection measured after 24 hrs (reference value: 2.28ug); format: functional, Daboia russelii
[9] = Protective activity against Daboia russellii venom-induced mortality in Swiss albino mouse at 6 mmol, iv administered immediately after venom injection measured after 24 hrs relative to untreated control; format: functional, Daboia russelii
[10] = Protective activity against Naja kaouthia venom-induced mortality in Swiss albino mouse at 6 mmol, iv by measuring venom LD50 administered immediately after venom injection measured after 24 hrs (reference value: 2.82 ug); format: functional
[11] = Protective activity against Naja kaouthia venom-induced mortality in Swiss albino mouse at 6 mmol, iv administered immediately after venom injection measured after 24 hrs relative to untreated control; format: functional
[12] = Protective activity against Daboia russellii venom-induced hemorrhage in Swiss albino mouse at 6 mmol, iv assessed as hemorhagic lesion by measuring […] administered immediately after venom injection measured after 24 hrs (Rvb =5 ug); format: functional, Daboia russelii
[13] = Protective activity against Daboia russellii venom-induced hemorrhage in Swiss albino mouse at 6 mmol, iv assessed as hemorhagic lesion administered immediately after venom injection measured after 24 hrs relative to untreated control; format: functional, Daboia russelii
[14] = Protective activity against Daboia russellii venom-induced mortality by measuring venom LD50 in Swiss albino mouse at 12 mmol, iv preincubated with venom for 1 hr followed by administration to mouse measured after 24 hrs (reference value: 2.28 ug); format: functional, Daboia russelii
[15] = Protective activity against Naja kaouthia venom-induced mortality in Swiss albino mouse at 12 mmol, iv by measuring venom LD50 preincubated with venom for 1 hr followed by administration to mouse measured after 24 hrs (reference value: 2.82 ug); format: functional
[16] = as §1, with “12” for “6”; format: functional, Daboia russelii
[17] = Protective activity against Daboia russellii venom-induced mortality in Swiss albino mouse at 12 mmol, iv by measuring venom LD50 administered immediately after venom injection measured after 24 hrs (reference value: 2.28ug); format: functional, Daboia russelii
Naja kaouthia [18] = assay: Protective activity against Naja kaouthia venom-induced mortality in Swiss albino mouse at 12 mmol, iv by measuring venom LD50 administered immediately after venom injection measured after 24 hrs (reference value: 2.82 ug); format: functional, organism-based
[19] = Protective activity against Daboia russellii venom-induced hemorrhage in Swiss albino mouse at 12 mmol, iv assessed as hemorhagic lesion by measuring […] administered immediately after venom injection measured after 24 hrs (Rvb =5 ug); format: functional, Daboia russelii
[20] = Protective activity against Daboia russellii venom-induced mortality by measuring venom LD50 in Swiss albino mouse at 100 mmol, iv preincubated with venom for 1 hr followed by administration to mouse measured after 24 hrs (reference value: 2.28 ug); format: functional, Daboia russelii
[21] = Protective activity against Daboia russellii venom-induced mortality in Swiss albino mouse at 100 mmol, iv preincubated with venom for 1 hr followed by administration to mouse measured after 24 hrs relative to untreated control; format: functional, Daboia russelii
[22] = Protective activity against Naja kaouthia venom-induced mortality in Swiss albino mouse at 100 mmol, iv by measuring venom LD50 preincubated with venom for 1 hr followed by administration to mouse measured after 24 hrs (reference value: 2.82 ug); format: functional
[23] = Protective activity against Naja kaouthia venom-induced mortality in Swiss albino mouse at 100 mmol, iv preincubated with venom for 1 hr followed by administration to mouse measured after 24 hrs relative to untreated control; format: functional
[24] = as §1, with “100” for “6”; format: functional, Daboia russelii
[25] = Protective activity against Daboia russellii venom-induced hemorrhage in intradermally dosed Swiss albino mouse at 100 mmol assessed as hemorhagic lesion preincubated with venom for 1 hr followed by administration to mouse measured after 24 hrs relative to untreated control; format: functional, Daboia russelii
[26] = Protective activity against Daboia russellii venom-induced mortality in Swiss albino mouse at 100 mmol, iv by measuring venom LD50 administered immediately after venom injection measured after 24 hrs (reference value: 2.28ug); format: functional, Daboia russelii
[27] = Protective activity against Daboia russellii venom-induced mortality in Swiss albino mouse at 100 mmol, iv administered immediately after venom injection measured after 24 hrs relative to untreated control; format: functional, Daboia russelii
[28] = Protective activity against Naja kaouthia venom-induced mortality in Swiss albino mouse at 100 mmol, iv by measuring venom LD50 administered immediately after venom injection measured after 24 hrs (reference value: 2.82 ug); format: functional
[29] = Protective activity against Naja kaouthia venom-induced mortality in Swiss albino mouse at 100 mmol, iv administered immediately after venom injection measured after 24 hrs relative to untreated control; format: functional
[30] = Protective activity against Daboia russellii venom-induced hemorrhage in Swiss albino mouse at 100 mmol, iv assessed as hemorhagic lesion by measuring […] administered immediately after venom injection measured after 24 hrs (Rvb =5 ug); format: functional, Daboia russelii
[31] = Protective activity against Daboia russellii venom-induced hemorrhage in Swiss albino mouse at 100 mmol, iv assessed as hemorhagic lesion administered immediately after venom injection measured after 24 hrs relative to untreated control; format: functional, Daboia russelii
[32] = Protective activity against Daboia russellii venom-induced mortality in iv dosed Swiss albino mouse administered 60 mins after venom injection relative to untreated control; format: functional, Daboia russelii
Naja kaouthia [33] = assay: Protective activity against Naja kaouthia venom-induced mortality in iv dosed Swiss albino mouse assessed as administered 30 to 60 mins after venom injection; format: functional, organism-based
Daboia russelii [34] = assay: (§2) Protective activity against Daboia russellii venom-induced defibrinogenation in iv dosed Swiss albino mouse assessed as venom level causing blood coagulation at 100 mmol preincubated with venom for 1 hr followed by administration to mouse relative to untreated; format: functional
Daboia russelii [35] = assay: (§3) Protective activity against Daboia russellii venom-induced defibrinogenation in iv dosed Swiss albino mouse assessed as blood coagulation at 100 mmol administered immediately after venom injection relative to untreated control; format: functional
Daboia russelii [36] = assay: Protective activity against Daboia russellii venom-induced coagulation in goat plasma assessed as increase in plasma recalcification time at 20 mmol preincubated with venom for 1 hr followed by plasma addition; format: functional, cell-free
[37] = Protective activity against Daboia russellii venom-induced defibrinogenation in iv dosed Swiss albino mouse assessed as venom level causing blood coagulation at 100 mmol preincubated with venom for 1 hr followed by administration to mouse (reference value: 2.5 ug); format: functional, Daboia russelii
[38] = Protective activity against Daboia russellii venom-induced defibrinogenation in iv dosed Swiss albino mouse assessed as venom level causing blood coagulation at 100 mmol administered immediately after venom injection (reference value: 2.5 ug); format: functional, Daboia russelii
Daboia russelii [39] = assay: Protective activity against Daboia russellii venom-induced mortality in iv dosed Swiss albino mouse administered immediately after venom injection relative to untreated control; format: functional, organism-based
[40] = Protective activity against Daboia russellii venom-induced mortality in iv dosed Swiss albino mouse administered 30 mins after venom injection relative to untreated control; format: functional, Daboia russelii
[41] = as §2; format: functional, Daboia russelii
[42] = as §3; format: functional, Daboia russelii
[43] = molecular target: T1, Basic phospholipase A2 VRV-PL-VIIIa (Daboia russelii) (UniProt P59071); assay: Inhibition of Daboia russellii venom PLA2 activity assessed as decrease in coagulation time of egg yolk at 20 mmol preincubated with venom for 1 hr followed by egg yolk addition measured after 1 hr
T1 sequence (whole entry): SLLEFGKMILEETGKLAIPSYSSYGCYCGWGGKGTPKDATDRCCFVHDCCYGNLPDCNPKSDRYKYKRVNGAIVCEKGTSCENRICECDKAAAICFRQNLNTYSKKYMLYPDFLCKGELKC

| SMILES | logP [1] | LD50 [20] [µg] | fold change (FC) [21] | LD50 [22] [µg] | fold change (FC) [23] | MHC [24] [µg] | fold change (FC) [25] | LD50 [26] [µg] | fold change (FC) [27] | LD50 [28] [µg] | fold change (FC) [29] | MHC [30] [µg] | fold change (FC) [31] | Activity [32] [%] | Activity (Naja kaouthia [33]) | fold change (FC) (Daboia russelii [34]) | fold change (FC) (Daboia russelii [35]) | Activity (Daboia russelii [36]) | Activity [37] [µg] | Activity [38] [µg] | also measured |
| --- | --- | --- | --- | --- | --- | --- | --- | --- | --- | --- | --- | --- | --- | --- | --- | --- | --- | --- | --- | --- | --- |
| COc1ccc(C(=O)O)c(O)c1 [4-METHOXYSALICYLIC ACID] | 1.21 |  |  |  |  |  |  |  |  |  |  |  |  |  |  |  |  |  |  |  | LD50 [2]: 22 µg; fold change (FC) [3]: 9.8; LD50 [4]: 9 µg; fold change (FC) [5]: 3.2; MHC [6]: 20 µg; fold change (FC) [7]: 4; LD50 [8]: 150 µg; fold change (FC) [9]: 3.75; LD50 [10]: 10 µg; fold change (FC) [11]: 2; MHC [12]: 10 µg; fold change (FC) [13]: 2 |
| CC(=O)Oc1ccccc1C(=O)O [ASPIRIN] | 1.24 |  |  |  |  |  |  |  |  |  |  |  |  |  |  |  |  |  |  |  | LD50 [14]: 6.6 µg; LD50 [15]: 3 µg; MHC [16]: 100 µg; LD50 [17]: 50 µg; LD50 (Naja kaouthia [18]): inactive; MHC [19]: 10 µg |
| O=Cc1ccc(O)cc1O | 1.19 | 6 | 2.6 | 3 | 1 | 50 | 10 | 100 | 2.5 | 8 | 1.6 | 5 | 1 | 10 | inactive | inactive | inactive | Active | 2.5 | 2.5 |  |
| OCc1cccc(O)c1O |  | 18 | 8 | 6 | 2.1 | 15 | 3 | 100 | 2.5 | 10 | 2 | 10 | 2 |  | inactive | inactive | inactive | Active | 2.5 | 2.5 |  |
| COc1cccc(CO)c1O |  | 25 | 11.2 | 9 | 3.2 | 40 | 8 | 150 | 3.75 | 10 | 2 | 10 | 2 | 10 | inactive |  |  | Active | 25 | 3.5 | Activity (Daboia russelii [39]): Active; Activity [40]: 40%; fold change (FC) [41]: 10; fold change (FC) [42]: 1.5; inhibition [43]: Active |
